Data as given in patent US20230340530A1, “Methods of Protecting RNA” (Pfizer Inc., priority 2020, published 2023).

The compounds below were run against RNA samples (Chi18 or HCV IRES) (assay: Droplet Digital Polymerase Chain Reaction (ddPCR) assay of RNA protection). Details: 50 mM Tris buffer pH 11.4, 16 hrs at 30° C. for Chi18 or 42° C. for HCV; table does not say which RNA; 600 µM to 0.018 µM compound, 2% DMSO; read-out: EC50 Values Obtained from the ddPCR Assay.
Format: biochemical
Method: The ddPCR assays measured RNA integrity by converting intact RNA to cDNA by reverse transcription, then performing digital PCR in thousands of nanoliter-sized droplets for each sample. PCR was performed within each droplet, which allowed for more sensitive detection of subtle changes in RNA concentration compared to traditional PCR or qPCR. Additionally, primers/probes specific to the 5′ end of the RNA/cDNA transcript(s) were used to assess fragment integrity, i.e. degraded RNA had fewer 5′ positive droplets. The BioRad QX200 Droplet Digital PCR System was used for the ddPCR workflow.
RNA samples (Chi18 or HCV IRES) were diluted to 100 fg/µL in 50 mM Tris buffer pH 11.4. Boron compounds were tested in a dose-response format to determine EC50. A compound dilution plate that contained a 30 mM top concentration of compound in DMSO was serially (half-log) diluted 10 times. A quantity of 0.12 µL of this compound dilution plate was spotted into a 96-well PCR plate (Thermo). Sample RNAs were added (6 µL) and incubated with test compounds as described below. Final compound concentrations ranged from 600 µM to 0.018 µM in 2% DMSO.
For the degradation reaction, treated RNAs were incubated for 16 hrs at 30° C. for Chi18 samples or 42° C. for HCV samples. Upon completion of the degradation reaction, cDNA was made and ddPCR run for each sample (96 well plates). Positive 5′ droplet values were divided by the total accepted droplet values for each sample and a ratio value generated for each sample.
Data was imported into a database where percent (%) protection and compound EC50 were calculated and curated. […] EC50 was determined by using a four parameter logistic equation: Y=A+((B-A)/(1+(C/X)D)); where Y is percent protection, X is compound concentration, A and B are minimum and maximum asymptotes, respectively, C is EC50, and D is Hill slope.

Compound | EC50 [µM]
C[C@H]1c2ccc(NCCC(=O)Nc3cc4c5c(c3)OCCOB5OC4)c(O)c2C(=O)C2=C(O)[C@]3(O)C(=O)C(C(N)=O)=C(O)[C@@H](N(C)C)[C@@H]3[C@@H](O)[C@@H]21 [PF-06968542, (4S,4aR,5S,5aR,6R,12aS)-9-({3-[(2,3-dihydro-7H-[1,2]oxaborolo[4,3,2-jk][2,5,1]benzodioxaborepin-9-yl)amino]-3-oxopropyl}amino)-4-(dimethylamino)-3,5,10,12,12a-pentahydroxy-6-methyl-1,11-dioxo-1,4,4a,5,5a,6,11,12a-octahydrotetracene-2-carboxamide] | 126
C[C@H]1c2ccc(NCC(=O)Nc3ccc4c(c3)B(O)OC4)c(O)c2C(=O)C2=C(O)[C@]3(O)C(=O)C(C(N)=O)=C(O)[C@@H](N(C)C)[C@@H]3[C@@H](O)[C@@H]21 [PF-06968419, (4S,4aR,5S,5aR,6R,12aS)-4-(dimethylamino)-3,5,10,12,12a-pentahydroxy-9-({2-[(1-hydroxy-1,3-dihydro-2,1-benzoxaborol-6-yl)amino]-2-oxoethyl}amino)-6-methyl-1,11-dioxo-1,4,4a,5,5a,6,11,12a-octahydrotetr acene-2-carboxamide] | 75.1
OB(c1ccc(Cl)cc1)c1ccc(Cl)cc1 [PF-05690484, bis(4-chlorophenyl)borinic acid] | 355
bis(acetato-kappaO)[1-cyclopropyl-6,7-difluoro-8-methyl-4-(oxo-kappaO)-1,4-dihydroquinoline-3-carboxylato-kappaO]boron [PF-04743686] | 271
CN(C)c1cc(NC(=O)c2ccc3c(c2)B(O)OC3(C)C)c(O)c2c1C[C@H]1C[C@H]3[C@H](N(C)C)C(O)=C(C(N)=O)C(=O)[C@@]3(O)C(O)=C1C2=O [PF-06967791, N-[(5aR,6aS,7S,1 OaS)-9-carbamoyl-4,7-bis(dimethylamino)-1,8,10a,11-tetrahydroxy-10,12-dioxo-5,5a,6,6a,7,10,10a,12-octahydrotetracen-2-yl]-1-hydroxy-3,3-dimethyl-1,3-dihydro-2,1-benzoxaborole-6-carboxamide] | 55.6
C[C@H]1c2ccc(NCCC(=O)Nc3ccc4c(c3)OCCOB4O)c(O)c2C(=O)C2=C(O)[C@]3(O)C(=O)C(C(N)=O)=C(O)[C@@H](N(C)C)[C@@H]3[C@@H](O)[C@@H]21 [PF-06968559, (4S,4aR,5S,5aR,6R,12aS)-4-(dimethylamino)-3,5,10,12,12a-pentahydroxy-9-({3-[(1-hydroxy-3,4-dihydro-1H-2,5,1-benzodioxaborepin-7-yl)amino]-3-oxopropyl}amino)-8-methyl-1,11-dioxo-1,4,4a,5,5a,6,11,12a-oc tahydrotetracene-2-carboxamide] | 99.1
O=C(Nc1ccc2c(c1)B(O)OC2)c1ccccc1 [PF-06957640, N-(1-hydroxy-1,3-dihydro-2,1-benzoxaborol-6-yl)benzamide] | 266
C[C@H]1c2ccc(NC(=O)CCC(=O)NC[C@H]3CCB(O)O3)c(O)c2C(=O)C2=C(O)[C@]3(O)C(=O)C(C(N)=O)=C(O)[C@@H](N(C)C)[C@@H]3[C@@H](O)[C@@H]21 (racemic) [PF-06968488, N~1~-[(5RS,5aRS,6SR,6aRS,7S R,10aSR)-9-carbamoyl-7-(dimethylamino)-1,6,8,10a,11-pentahydroxy-5-methyl-10,12-dioxo-5,5a,6,6a,7,10,10a,12-octahydrotetracen-2-yl]-N~4~-{[(5RS)-2-hydroxy-1,2-oxaborolan-5-y I]methyl}butanediamide] | 189
CN(C)/C(O)=C/C1=[O+][B-](F)(F)OC=C1c1ccccc1 [PF-03696713, [(1Z)-1-(dimethylamino)-1-hydroxy-5-(hydroxy-kappaO)-4-phenylpenta-1,4-dien-3-onato-kappaO](difluorido)boron] | 400
CN1CCN(Cc2ccc([B@@-]3(c4ccc(C#N)cc4)Oc4cccc5ccc[n+]3c45)cc2Cl)CC1 [PF-06956838, {3-chloro-4-[(4-methylpiperazin-1-yl)methyl]phenyl}(4-cyanophenyl)(quinolin-8-olato-kappa-2-N,O)boron] | 207
CN1CCN(Cc2cccc(B(Oc3cccc4cccnc34)c3ccc(C#N)cc3)c2)CC1 [PF-06957315, quinolin-8-yl (4-cyanophenyl){3-[(4-methylpiperazin-1-yl)methyl]phenyl}borinate] | 253
Cc1cc(Oc2ccnc(NCCN)n2)cc2c1C(CC(=O)O)OB2O (stereo not drawn) [PF-06959336, 2-(6-((2-((2-aminoethyl)amino)pyrimidin-4-yl)oxy)-1-hydroxy-4-methyl-1,3-dihydrobenzo[c][1,2]oxabor ol-3-yl)acetic acid] | 114
C[C@H]1c2ccc(NC(=O)CCC(=O)Nc3ccc4c(c3)B(O)OC4)c(O)c2C(=O)C2=C(O)[C@]3(O)C(=O)C(C(N)=O)=C(O)[C@@H](N(C)C)[C@@H]3[C@@H](O)[C@@H]21 [PF-06968256, N-1-[(5R,5aR,6S,6aR,7S,10aS)-9-carbamoyl-7-(dimethylamino)-1,6,8,10a,11-pentahydroxy-5-methyl-10,12-dioxo-5,5a,6,6a,7,10,10a,12-octahydrotetracen-2-yl]-N~4~-(1-hydroxy-1,3-dihydro-2,1-benzoxaborol-6-yl)butanediamide] | 75.7
CN1CCN(Cc2ccc(B(Oc3cccc4cccnc34)c3ccc(C#N)c(Cl)c3)cc2F)CC1 [PF-06956823, quinolin-8-yl (3-chloro-4-cyanophenyl){3-fluoro-4-[(4-methylpiperazin-1-yl)methyl]phenyl}borinate] | 175
C[C@H]1c2c(NC(=O)c3ccc4c(c3)B(O)OC4(C)C)ccc(O)c2C(=O)C2=C(O)[C@]3(O)C(=O)C(C(N)=O)=C(O)[C@@H](N(C)C)[C@@H]3[C@@H](O)[C@@H]21 [PF-06968370, N-[(6aS,10S,10aR,11S,11aR, 12R)-8-carbamoyl-10-(dimethylamino)-4,6,6a,9,11-pentahydroxy-12-methyl-5,7-dioxo-5,6a,7,10,10a,11,11a,12-octahydrotetracen-1-yl]-1-hydroxy-3,3-dimethyl-1,3-dihydro-2,1-benzox aborole-6-carboxamide] | 258
